Read-outs that look alike come from different tables or passages of the source.
What was measured:
[1] = tested on: Ab2, monoclonal antibody receptor cross reactive to f-PSA and PSA-ACT; format: binding
[2] = format: binding; settings: CT 5 ng/ml; PSA 100 ng/ml; BSA 10 microgram/ml; phosphate buffer pH 6.7
[3] = tested on: monoclonal antibodies for PSA (Ab1); format: binding
[4] = format: binding; settings: BT 5 ng/ml; PSA 100 ng/ml; BSA 10 microgram/ml; phosphate buffer pH 6.7
[5] = f-PSA 1700 pg/ml, p-type silicon nanowire

Row | Substance | Conductance Change NW2-Ab2 ([1]; PSA-ACT 0.32 pg/ml) | Conductance Change NW2-Ab2 ([1]; PSA-ACT 3.2 pg/ml) | Conductance Change NW2-Ab2 ([1]; PSA-ACT 320 pg/ml) | Conductance Change NW2-Ab2 ([1]; PSA-ACT 3200 pg/ml) | Conductance Change NW2-Ab2 ([1]; f-PSA 0.085 pg/ml) | Conductance Change NW2-Ab2 ([1]; f-PSA 0.85 pg/ml) | Conductance Change NW2-Ab2 ([1]; f-PSA 8.5 pg/ml) | Conductance Change NW2-Ab2 ([1]; f-PSA 850 pg/ml) | Conductance Change NW2-Ab2 [1, 5] | conductance response to injection [2] | Conductance Change NW1-Ab1 ([3]; f-PSA 0.085 pg/ml) | Conductance Change NW1-Ab1 ([3]; f-PSA 0.85 pg/ml) | Conductance Change NW1-Ab1 ([3]; f-PSA 8.5 pg/ml) | Conductance Change NW1-Ab1 ([3]; f-PSA 850 pg/ml) | Conductance Change NW1-Ab1 [3, 5] | conductance response to injection [4]
1 | PSA-ACT: PSA-alpha-1-antichymotrypsin complex, cancer marker | 19 nS | 67 nS | 124 nS | 143 nS | – | – | – | – | – | – | – | – | – | – | – | –
2 | f-PSA: free prostate specific antigen, cancer marker protein, purchased from Calbiochem | – | – | – | – | 10 nS | 50 nS | 81 nS | 132 nS | 154 nS | no response was observed | 15 nS | 45 nS | 98 nS | 185 nS | 192 nS | no response was observed
